Reference: publication PMC12965331 (Biochemistry, 2025)

Tests used:
NSP10–14 ExoN = NSP10–14 ExoN (Severe acute respiratory syndrome coronavirus 2, UniProt P0DTD1); assay type: biochemical, SARS-CoV-2
HNMT = HNMT (Homo sapiens, UniProt P50135); assay: HNMT specificity screen; assay type: biochemical
RNase H = RNase H (Escherichia coli, UniProt P0A7Y4)
NSP14 ExoN = conditions: cited from earlier work

Chain of RNase H (P0A7Y4 whole entry): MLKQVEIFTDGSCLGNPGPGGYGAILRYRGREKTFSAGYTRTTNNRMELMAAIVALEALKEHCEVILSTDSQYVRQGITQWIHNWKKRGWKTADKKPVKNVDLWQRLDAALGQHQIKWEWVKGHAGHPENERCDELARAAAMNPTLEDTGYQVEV
Chain of HNMT (P50135 whole entry): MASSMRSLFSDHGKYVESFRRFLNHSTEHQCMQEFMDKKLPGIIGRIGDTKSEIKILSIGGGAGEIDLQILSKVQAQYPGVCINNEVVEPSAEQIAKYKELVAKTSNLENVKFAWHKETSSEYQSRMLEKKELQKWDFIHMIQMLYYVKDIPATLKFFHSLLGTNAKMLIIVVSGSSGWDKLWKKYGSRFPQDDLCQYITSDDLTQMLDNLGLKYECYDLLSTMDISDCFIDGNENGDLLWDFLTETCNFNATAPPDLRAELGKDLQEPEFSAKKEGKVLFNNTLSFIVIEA

| SMILES | effect on VMAX, ExoN RNA substrate (NSP10–14 ExoN) | mechanism of inhibition with respect to ExoN RNA substrate (NSP10–14 ExoN) | change in KM for ExoN RNA substrate (NSP10–14 ExoN; concentrations below 2 μM of compound) | activity against HNMT (off-target) (HNMT) | activity against RNase H (off-target) (RNase H) | potency difference between NSP14 ExoN and RNase H (RNase H) | inhibition of NSP14 ExoN activity, affinity (NSP14 ExoN) |
| --- | --- | --- | --- | --- | --- | --- | --- |
| CC(=O)N1CCN(c2ccc(C(=O)N3CCN(Cc4ccccc4)CC3)nn2)C(=O)C1 [NCGC00537446] | more clearly influenced | noncompetitive | no significant change | some activity | some activity | greater than 10 fold |  |
| O=C1C=C2C(=CCOC2O)O1 (stereo not shown) [Patulin] |  |  |  |  |  |  | micromolar affinity |
